Values joined by “and” are separate entries in the source; they are usually repeats but may differ in a detail not shown here. Equal entries are not always repeated. Marks after values point to notes of the source that are not given here.
Tests used:
Format in all cases: cell-based
[1] = test system: human oral keratinocytes (HOK-18A); experiment: IL-8 levels in supernatants of keratinocyte cultures exposed to substrate-treated biofilms; details: mean±SD n=3
Procedure: (§1) Cultures of immortalized human oral keratinocytes (HOK-18A) are grown. The relative inflammatory potential of the substrate-treated multi-species biofilms is evaluated by analyzing the expression of five inflammatory mediator genes in human oral keratinocytes (HOKs) exposed to the substrate-treated biofilms. […] The IL-8 levels in the cellular supernatant are determined as well. RNA is converted to cDNA and relative expression of inflammatory mediator genes is determined as described above with respect to the cellular housekeeping gene (3-actin.
(§2) Table 7: IL-8 levels detected in the supernatants of human oral keratinocytes (HOK-18A) cultures exposed to substrate-treated multi-species biofilms are shown as mean±SD (n=3) values (pg/mL). All substrates are dissolved in PBS at a concentration of 1 M (upper part) or 1% (w/v) (lower part). Values between 0 and 1 represent relative downregulation, values >1 represent relative upregulation. […] For such values, statistically significant differences between two experimental conditions are marked with ‘#1’ (vs. NADM), ‘#2’ (vs. NADG), ‘#3’ (vs. D-(+)-mannose) (P<0.05).

multi-species biofilms = experiment: Multi-species biofilm organic acid balances (supernatant); details: >0 production, <0 consumption, mean±SD n=3
Procedure: (§3) Biofilms are grown vertically on Calcium Deficient Hydroxyapatite (CAD-HA) disks (Hitemco Medical, Old Bethpage, USA) using the Amsterdam Active Adhesion model. Biofilms are allowed to establish during 24 h (37° C., 170 rpm) under micro-aerophilic conditions (6% O2, 7% CO2, 7% H2, 80% N2). After this 24 h, disks are rinsed 3 times a day for 3 minutes (RT, 250 rpm), for 3 consecutive days, by transferring the lid containing the disks to a new 24-well plate containing 2 mL/well of the appropriate substrate solution. As a negative control, PBS (pH 5.7) without substrate supplementation is used. After each rinsing step, disks are shortly dip-rinsed in a new 24-well plate containing fresh modified BHI medium (2 mL/well) to remove remaining substrate traces. Subsequently, the lid is transferred to another 24-well plate containing fresh modified BHI medium (2 mL/well), followed by incubation (micro-aerophilic, 37° C., 170 rpm) until the next rinsing step.
To examine the effect of NADM and the influence of the orientation and absence/presence of the N-acetyl group on organic acid production and consumption, supernatant samples from substrate-treated or untreated multi-species biofilms are analysed. […] When comparing relevant significant differences between substrate conditions, an increase in acetate production is observed for NADM compared to D-(+)-mannose (3084±174 vs. 1934±56 mg/L).

[2] = test system: human oral keratinocytes (HOK-18A); experiment: Inflammatory mediator gene expression in keratinocytes exposed to substrate-treated biofilms; details: relative to control (=1), geometric mean (95% C.I.) n=3
Procedure: as §1
In HOKs exposed to substrate-treated (substrate concentrations of 1 M) multi-species biofilms, mostly decreases in inflammatory mediator gene expression are observed and measured via SYBR RT-qPCR, the results of which are detailed in Table 6.
as §2, with “All” for “Table 7: IL-8 levels detected in the supernatants of human oral keratinocytes (HOK-18A) cultures exposed to substrate-treated multi-species biofilms are shown as mean±SD (n=3) values (pg/mL). All”

S. sanguinis = experiment: Multi-species biofilm composition: absolute abundance of S. sanguinis; details: mean±SD n=3
Procedure: as §3
(§4) NADM, N-acetyl-D-glucosamine (“NADG”) and D-(+)-mannose are selected to determine their effects on multi-species biofilm composition. […] decrease in absolute numbers in at least four of the pathogenic bacterial species tested in the assay, compared to the control, the results of which are described in Table 1 below. Absolute abundances of bacterial species are shown as mean±SD (n=3) logarithmic values of the genome equivalents per millilitre (log(Geq/mL)).

[3] = test system: A. actinomycetemcomitans virulence genes; experiment: Multi-species biofilm virulence gene expression, SYBR RT-qPCR: A. actinomycetemcomitans; details: for Fold Change in virulence gene expression: aae / Fold Change in virulence gene expression: apaH / Fold Change in virulence gene expression: cdtB / Fold Change in virulence gene expression: emaA / Fold Change in virulence gene expression: flp / Fold Change in virulence gene expression: ltxA / Fold Change in virulence gene expression: omp29 / Fold Change in virulence gene expression: omp100 / Fold Change in virulence gene expression: orf859 / Fold Change in virulence gene expression: pgA / Fold Change in virulence gene expression: vapA / Fold Change in virulence gene expression: vppA: relative to control (=1), 2^-ΔΔCt, geometric mean n=3
Procedure: as §3
The expression of 33 virulence genes from 4 periodontal pathogens is analysed to evaluate the relative virulence of the substrate-treated biofilms. For all three substrates, virulence gene expression is determined relatively to the control, and these values are also compared between substrates when this is relevant (Tables 5a-5d).

P. gingivalis = experiment: Multi-species biofilm composition: absolute abundance of P. gingivalis; details: mean±SD n=3
Procedure: as §3, §4

S. gordonii = experiment: Multi-species biofilm composition: absolute abundance of S. gordonii; details: mean±SD n=3
Procedure: as §3
NADM, N-acetyl-D-glucosamine (“NADG”) and D-(+)-mannose are selected to determine their effects on multi-species biofilm composition. Repeated rinsing of the biofilms with the substrates at a concentration of 1M results in a significant decrease in absolute numbers in at least four of the pathogenic bacterial species tested in the assay, compared to the control, the results of which are described in Table 1 below. Absolute abundances of bacterial species are shown as mean±SD (n=3) logarithmic values of the genome equivalents per millilitre (log(Geq/mL)).

[4] = biofilm rinsed with substrate 1M
[5] = biofilm rinsed with substrate 1%

Compound: CC(=O)N[C@H]1C(O)O[C@H](CO)[C@@H](O)[C@@H]1O (stereo partly drawn) [NADG, N-acetyl-D-glucosamine, reference compound]
- IL-8 levels in supernatants of HOK-18A cultures ([1]; biofilm rinsed with substrate 1%(w/v)): 54.75 ± 11.66 pg/mL
- IL-8 levels in supernatants of HOK-18A cultures [1, 4]: 0.22 ± 0.32 pg/mL
- acetate level in biofilm supernatant (multi-species biofilms; substrate 1%(w/v)): 379 ± 10 mg/L
- butyrate level in biofilm supernatant (multi-species biofilms; substrate 1%(w/v)): 2238 ± 59 mg/L
- formate level in biofilm supernatant (multi-species biofilms; substrate 1%(w/v)): 4315 ± 198 mg/L
- lactate level in biofilm supernatant (multi-species biofilms; substrate 1%(w/v)): 125 ± 0 mg/L
- propionate level in biofilm supernatant (multi-species biofilms; substrate 1%(w/v)): 2205 ± 89 mg/L
- acetate level in biofilm supernatant (multi-species biofilms; substrate 1 M): 3815 ± 77 mg/L
- butyrate level in biofilm supernatant (multi-species biofilms; substrate 1 M): 1255±51 mg/L and 1255 ± 51*^, #1, 3 mg/L
- formate level in biofilm supernatant (multi-species biofilms; substrate 1 M): 352 ± 18 mg/L
- lactate level in biofilm supernatant (multi-species biofilms; substrate 1 M): 125 ± 0 mg/L
- propionate level in biofilm supernatant (multi-species biofilms; substrate 1 M): 2750 ± 40 mg/L
- Fold change in inflammatory mediator gene expression: IL-1β [2, 5]: 0.71 (0.38-1.33) fold
- Fold change in inflammatory mediator gene expression: IL-6 [2, 5]: 0.73 (0.58-0.93) fold
- Fold change in inflammatory mediator gene expression: IL-8 [2, 5]: 1.00 (0.78-1.27) fold
- Fold change in inflammatory mediator gene expression: MMP-8 [2, 5]: 0.52 (0.17-1.60) fold
- Fold change in inflammatory mediator gene expression: TNF-α [2, 5]: 0.71 (0.28-1.35) fold
- Fold change in inflammatory mediator gene expression: IL-1β [2, 4]: 0.75 (0.55-1.02) fold
- Fold change in inflammatory mediator gene expression: IL-6 [2, 4]: 0.57 (0.46-0.71) fold
- Fold change in inflammatory mediator gene expression: IL-8 [2, 4]: 0.14 (0.06-0.36)* fold
- Fold change in inflammatory mediator gene expression: MMP-8 [2, 4]: 1.28 (0.79-2.08) fold
- Fold change in inflammatory mediator gene expression: TNF-α [2, 4]: 0.89 (0.59-1.34) fold
- Absolute abundance S. sang. (S. sanguinis) (S. sanguinis; substrate 1%(w/v) in PBS): 8.4 ± 0.11 log(Geq/mL)
- Absolute abundance S. sang. (S. sanguinis) (S. sanguinis; substrate 1 M in PBS): 8.11 ± 0.68 log(Geq/mL)
- Fold Change in virulence gene expression: aae ([3]; substrate 1% (w/v)): 1.55 fold
- Fold Change in virulence gene expression: apaH ([3]; substrate 1% (w/v)): 0.73 fold
- Fold Change in virulence gene expression: cdtB ([3]; substrate 1% (w/v)): 1.05 fold
- Fold Change in virulence gene expression: emaA ([3]; substrate 1% (w/v)): 0.68 fold
- Fold Change in virulence gene expression: flp ([3]; substrate 1% (w/v)): 0.54 fold
- Fold Change in virulence gene expression: ltxA ([3]; substrate 1% (w/v)): 0.40 fold
- Fold Change in virulence gene expression: omp29 ([3]; substrate 1% (w/v)): 0.77 fold
- Fold Change in virulence gene expression: omp100 ([3]; substrate 1% (w/v)): 0.71 fold
- Fold Change in virulence gene expression: orf859 ([3]; substrate 1% (w/v)): 1.99 fold
- Fold Change in virulence gene expression: pgA ([3]; substrate 1% (w/v)): 0.72 fold
- Fold Change in virulence gene expression: vapA ([3]; substrate 1% (w/v)): 0.65 fold
- Fold Change in virulence gene expression: vppA ([3]; substrate 1% (w/v)): 0.28 fold
- A. actinomycetemcomitans gene expression decrease: vppA ([3]; substrate 1%(w/v)): 3.6 fold
- A. actinomycetemcomitans gene expression increase: aae ([3]; substrate 1%(w/v)): 1.5 fold
- A. actinomycetemcomitans gene expression increase: orf859 ([3]; substrate 1%(w/v)): 2 fold
- Upregulation of A. actinomycetemcomitans expression of flp ([3]; substrate 1 M): 2.4 fold
- Fold Change in virulence gene expression: aae ([3]; substrate 1M): 0.24 fold
- Fold Change in virulence gene expression: apaH ([3]; substrate 1M): 0.08 fold
- Fold Change in virulence gene expression: cdtB ([3]; substrate 1M): 0.04 fold
- Fold Change in virulence gene expression: emaA ([3]; substrate 1M): 0.29 fold
- Fold Change in virulence gene expression: flp ([3]; substrate 1M): 2.40 fold
- Fold Change in virulence gene expression: ltxA ([3]; substrate 1M): 0.01 fold
- Fold Change in virulence gene expression: omp29 ([3]; substrate 1M): 0.19 fold
- Fold Change in virulence gene expression: omp100 ([3]; substrate 1M): 0.03 fold
- Fold Change in virulence gene expression: orf859 ([3]; substrate 1M): 0.13 fold
- Fold Change in virulence gene expression: pgA ([3]; substrate 1M): 11.60 fold
- Fold Change in virulence gene expression: vapA ([3]; substrate 1M): 1.00 fold
- Fold Change in virulence gene expression: vppA ([3]; substrate 1M): 0.49 fold
- Absolute abundance Pg (P. gingivalis) (P. gingivalis; substrate 1%(w/v) in PBS): 7.14 ± 0.28 log(Geq/mL)
- Absolute abundance Pg (P. gingivalis) (P. gingivalis; substrate 1 M in PBS): 4.00 ± 0.39*^, ^#3 log(Geq/mL)
- Absolute abundance S. gord. (S. gordonii) (S. gordonii; substrate 1%(w/v) in PBS): 8.33 ± 0.06 log(Geq/mL)
- Absolute abundance S. gord. (S. gordonii) (S. gordonii; substrate 1 M in PBS): 9.38 ± 0.40 log(Geq/mL)

From patent publication US20220257491A1, “Prebiotic Oral Care Compositions and Methods” (Colgate-Palmolive Company, priority 2021, published 2022)
